Data set [1] concerns the target benzodiazepine receptor (^3 H-diazepam binding sites, rat brain membranes).
Description: This efficacy is measured by Ki values in micro moles calculated by using the equation:
C=the concentration of ^3 H-diazepam,
KD =the affinity constant=2,74 μM, and
IC50 =the concentration causing 50% inhibition of ^3 H-diazepam binding.
Data set [2] is described as follows: Acute toxicity in mice (LD50). It counts as in vivo. The conditions noted are these: mouse, in vivo. From the text:
(§1) The following Table 2 contains values already given in U.S. Pat. No. 4,064,255 and supplies additional values obtained according to the same procedure.

In the next data set the test system is Mice. Put plainly: Acute toxicity in mice (LD50). The class given is in vivo.
From the text: as §1

Where [3] appears, read: iv, I.V., read-out: Acute toxicity LD50, I.V.
[4] abbreviates: po, orally, read-out: Acute toxicity LD50, orally.

Here are results for 8 compounds from patent publication US4208417A, “Indole derivatives and their use as anxiolytics” (Pharmindustrie, priority 1978, dated 1980).

Where two headings read alike, the source gives them in different places.

`O=C(CC1CCNCC1)c1c[nH]c2ccccc12` [Example 1, Indolyl-3-(piperidyl-4-methyl)ketone] registered a Ki in data set [1] of 43 µM. The LD50 is 47 mg/kg in data set [2] (setting [3]) and 300 to 900 mg/kg in data set [2] (setting [4]).
In data set [1], `COc1ccc2[nH]cc(CCC3CCNCC3)c2c1` [Example 8, [(Methoxy-5 indolyl-3)-2 ethyl]-4 piperidine] came in with a Ki of 40 µM. In addition, the LD50 in data set [2] (setting [3]) was found to be 41 mg/kg; in data set [2] (setting [4]) it was 675 mg/kg.
Compound `Cn1cc(CCC2CCNCC2)c2ccccc21` [Example 9, [(Methyl-1 indolyl-3)-2 ethyl]-4 piperidine] had a Ki in data set [1] of 90 µM. In addition, in the data set on Mice, the “Acute toxicity LD50, I.V.” value turned out to be 44 mg/kg and the “Acute toxicity LD50, orally” value turned out to be 225 mg/kg.
Regarding `c1ccc2c(CCC3CCNCC3)c[nH]c2c1` [Example 10, [(Indolyl-3)-2 ethyl]-4 piperidine], affinity in data set [1] was put at a Ki of 64 µM. In the data set with Mice, the “Acute toxicity LD50, I.V.” value was 60 mg/kg and the “Acute toxicity LD50, orally” value came out at 600 mg/kg.
On the same counts, the results for `c1ccc2c(CC3CCNCC3)c[nH]c2c1` [Example 11, (Indolyl-3 methyl)-4 piperidine] are 90 µM, 57 mg/kg and 225 mg/kg.
In data set [1], `Clc1ccc2[nH]cc(CCC3CCNCC3)c2c1` [Example 12, [(Chloro-5 indolyl-3)-2 ethyl]-4 piperidine] showed a Ki of 37 µM. The LD50 in data set [2] (setting [3]) came out at 85 mg/kg; in data set [2] (setting [4]), 625 mg/kg.
In turn, `c1ccc2c(CCCC3CCNCC3)c[nH]c2c1` [Example 13, [(Indolyl-3)-3 propyl]-4 piperidine] had a Ki in data set [1] of 70 µM. Besides, the LD50 turned out to be 29 mg/kg in data set [2] (setting [3]) and 600 mg/kg in data set [2] (setting [4]).
In data set [1], `c1ccc(Cn2cc(CCC3CCNCC3)c3ccccc32)cc1` [Example 14, [(Benzyl-1 indolyl-3)-2 ethyl]-4 piperidine] displayed a Ki of 33 µM. Also, the LD50 is 33 mg/kg in data set [2] (setting [3]) and 525 mg/kg in data set [2] (setting [4]).
